Earlier results on 3 compounds are cited in PMC8513935.

Data set [1] is described as follows: derived by the authors as gas->solvent minus gas->water (a hypothetical dry solvent; the ESI), not a two-phase measurement.
Data set [2] is described as follows: experimental, compiled by the authors from the literature (the ESI cites the sources).
Data set [3] can be described thus: log P octanol/water from commercial databases, averaged (the ESI). The following applies: Octanol (wet), 25 C.

In the case of `C1CCOCC1`, the log K of transfer, water to solvent in data set [1] (Chloroform, 25 C) was 1.97 log10 K; in data set [1] (Cyclohexane, 25 C) it was 0.92 log10 K; in data set [1] (Hexadecane, 25 C), 0.707 log10 K; in data set [1] (Octan-1-ol(dry), 25 C) it was 0.91 log10 K; in data set [3], 0.795 log10 K. Besides, the log K of transfer, gas to solvent in data set [2] (Chloroform, 25 C) was 4.28 log10 K; in data set [2] (Cyclohexane, 25 C), 3.23 log10 K; in data set [2] (Hexadecane, 25 C), 3.02 log10 K; in data set [2] (Octan-1-ol, 25 C) it was 3.22 log10 K; in data set [2] (Water, 25 C), 2.31 log10 K.
Regarding `CCCCc1ccccc1`, the log K of transfer, water to solvent in data set [1] (Ethanol, 25 C) is 3.91 log10 K; in data set [1] (Hexadecane, 25 C), 4.44 log10 K; in data set [1] (Methanol, 25 C) it was 3.99 log10 K; in data set [1] (Propan-2-ol, 25 C), 4.06 log10 K; in data set [1] (Tetrahydrofuran, 25 C), 5.09 log10 K; in data set [3], 4.26 log10 K. In addition, the log K of transfer, gas to solvent in data set [2] (Ethanol, 25 C) was 4.2 log10 K; in data set [2] (Hexadecane, 25 C), 4.73 log10 K; in data set [2] (Methanol, 25 C) it was 4.28 log10 K; in data set [2] (Propan-2-ol, 25 C) it was 4.35 log10 K; in data set [2] (Tetrahydrofuran, 25 C), 5.38 log10 K; in data set [2] (Water, 25 C), 0.29 log10 K.
In the case of `CCN(CC)CC`, the log K of transfer, water to solvent in data set [1] (1,2-Dichloroethane, 25 C) was 0.85 log10 K; in data set [1] (Acetone, 25 C) it was 0.61 log10 K; in data set [1] (Butan-1-ol, 25 C) it was 1.2 log10 K; in data set [1] (Butan-2-ol, 25 C) it was 1.17 log10 K; in data set [1] (Butanone, 25 C) it was 0.69 log10 K; in data set [1] (CCl4, 25 C), 1.18 log10 K. In addition, the log K of transfer, water to solvent was 0.99 log10 K in data set [1] (Chlorobenzene, 25 C); 1.86 log10 K in data set [1] (Chloroform, 25 C); 0.654 log10 K in data set [1] (Cyclohexanone, 25 C); 0.9 log10 K in data set [1] (Diethyl Ether, 25 C); 1.21 log10 K in data set [1] (Ethanol, 25 C); 0.68 log10 K in data set [1] (Hexadecane, 25 C). Besides, the log K of transfer, water to solvent is 0.93 log10 K in data set [1] (Hexane, 25 C); 1.48 log10 K in data set [1] (Methanol, 25 C); 1.28 log10 K in data set [1] (Pentan-1-ol, 25 C); 1.14 log10 K in data set [1] (Propan-1-ol, 25 C); 0.95 log10 K in data set [1] (Propan-2-ol, 25 C); 1.01 log10 K in data set [1] (Tetrahydrofuran, 25 C). In addition, in data set [3], the log K of transfer, water to solvent is 1.45 log10 K. Also, the log K of transfer, gas to solvent in data set [2] (1,2-Dichloroethane, 25 C) is 3.21 log10 K; in data set [2] (Butan-1-ol, 25 C), 3.56 log10 K; in data set [2] (Butan-2-ol, 25 C), 3.53 log10 K; in data set [2] (Butanone, 25 C), 3.05 log10 K; in data set [2] (CCl4, 25 C), 3.54 log10 K; in data set [2] (Chlorobenzene, 25 C), 3.35 log10 K. Besides, the log K of transfer, gas to solvent in data set [2] (Chloroform, 25 C) is 4.22 log10 K; in data set [2] (Cyclohexanone, 25 C), 3.01 log10 K; in data set [2] (Diethyl Ether, 25 C), 3.26 log10 K; in data set [2] (Ethanol, 25 C) it was 3.57 log10 K; in data set [2] (Hexadecane, 25 C), 3.04 log10 K; in data set [2] (Hexane, 25 C), 3.29 log10 K. Also, the log K of transfer, gas to solvent in data set [2] (Methanol, 25 C) was 3.84 log10 K; in data set [2] (Pentan-1-ol, 25 C), 3.64 log10 K; in data set [2] (Propan-1-ol, 25 C), 3.5 log10 K; in data set [2] (Propan-2-ol, 25 C), 3.31 log10 K; in data set [2] (Propanone, 25 C), 2.97 log10 K; in data set [2] (Tetrahydrofuran, 25 C), 3.37 log10 K. For the same compound, the log K of transfer, gas to solvent in data set [2] (Water, 25 C) is 2.36 log10 K.
